According to publication PMC11154582, “Modeling the Blood-Brain Barrier Permeability of Potential Heterocyclic Drugs via Biomimetic IAM Chromatography Technique Combined with QSAR Methodology” (Molecules, 2024):
Like-named read-outs stand apart in the source and are kept apart here.

Columns and labels:
[1] = Biomimetic IAM chromatography (log kw, IAM); type: physicochemical; conditions: IAM.PC.DD2 column, buffered acetonitrile, pH 7.4, 25 °C, extrapolated to buffer
Experimental: High performance liquid chromatography (HPLC) measurements were performed on a Shimadzu Vp liquid chromatographic system (Shimadzu, Izabelin, Poland). This instrument was equipped with LC 10AT pump, SPD 10A ultraviolet-visible detector, SCL 10A system controller, CTO-10 AS chromatographic oven, and a Rheodyne injector valve with a 20 μL loop. As the stationary phase Regis IAM.PC.DD2 column, 100 × 4.6 mm i.d., 10 μm (Morton Grove, IL, USA) was applied.
Buffered acetonitrile mixtures were used as effluents. Acetonitrile concentration, expressed as a volume fraction, was varied within a range from 0.2 to 0.5, with a constant step of 0.1. The buffer was prepared from 0.01 mol L^−1 solutions of Na2HPO4 and citric acid, and a pH value of 7.4 was fixed before mixing with an organic modifier. The flow rate was 1.3 mL min^−1. Each compound sample was dissolved in acetonitrile to obtain a concentration of 0.005 mg mL^−1, and each solute peak was detected under ultraviolet light at a wavelength of λmax = 254 nm. Each measurement was performed at a constant temperature (25 °C) at least three times. The dead time values were measured from sodium chloride peaks.
From among 126 heterocyclic compounds evaluated in this work (Table 1), 89 structures have been investigated previously on the IAM column: these are molecules from groups III, IV, V, VI, VII, VIII, IX, XI, XIII, and XV [21, 22, 23]. The remaining ones, i.e., 37 compounds from groups I, II, X, XII and XIV, were tested in this study for the first time using the biomimetic IAM chromatographic technique. To calculate the log kw values (i.e., the logarithms of retention parameter in the buffer as the mobile phase), the retention parameters, logs k (k = (tr − t0)/t0; where tr is the solute retention time, and t0 is a dead time), that were measured for all tested compounds, were used according to Soczewiński-Wachtmeister’s equation (Equation (5)): (5) log k=logtr−t0/t0=log kw−sφ where φ denotes the volume fraction of acetonitrile as organic modifier in the mobile phase, and kw means the retention parameter corresponding to buffer as the mobile phase. The log kw values were evaluated as linear regression coefficients (Table 2).

human cancer cells [2] = system: human cancer cells; set-up: method as in ref [3,9,10,13,18-21] (a number printed in a supplementary file, which may have a reference list of its own: not looked up in the article's list); conditions: supplement ref [3,9,10,13,18-21]; cited from earlier work
[3] = IAM column, cited from earlier work
human cancer cells [4] = system: human cancer cells; set-up: method as in ref [3-7,9-15,17-21] (a number printed in a supplementary file, which may have a reference list of its own: not looked up in the article's list); conditions: supplement ref [3-7,9-15,17-21]; cited from earlier work
[5] = set-up: method as in ref [8,16] (a number printed in a supplementary file, which may have a reference list of its own: not looked up in the article's list); conditions: supplement ref [8,16]; cited from earlier work
[6] = set-up: method as in ref [21,22] (a number printed in a supplementary file, which may have a reference list of its own: not looked up in the article's list); conditions: supplement ref [21,22]; cited from earlier work
[7] = system: central nervous system of mice; set-up: method as in PMID 24157086; conditions: preliminary tests, ref [21]; cited from earlier work

Cc1cc(Cl)ccc1OCc1nnc2n1CCN2c1ccccc1 [Compound 8]
log kw, IAM [1]: 0.09
mechanism of antiproliferative action: inducing DNA damage (human cancer cells [2]): DNA damage

COc1ccccc1N1CCn2c1nnc(C(F)(F)F)c2=O [Compound 18]
log kw, IAM ([3]; ref [22]): 0.67
mechanism of antiproliferative action: promoting apoptotic caspases (human cancer cells [2]): promoting apoptotic caspases

O=c1c(C(F)(F)F)nnc2n1CCN2c1ccccc1Cl [Compound 19]
log kw, IAM ([3]; ref [22]): 0.88
mechanism of antiproliferative action: promoting apoptotic caspases (human cancer cells [2]): promoting apoptotic caspases

CC(C)c1nnc2n(c1=O)CCN2c1ccccc1Cl [Compound 31]
log kw, IAM ([3]; ref [22]): 0.65
mechanism of antiproliferative action: promoting apoptotic caspases (human cancer cells [2]): promoting apoptotic caspases

CC(C)c1nnc2n(c1=O)CCN2c1ccc(Cl)cc1 [Compound 33]
log kw, IAM ([3]; ref [22]): 1.39
mechanism of antiproliferative action: promoting apoptotic caspases (human cancer cells [2]): promoting apoptotic caspases

CC(C)c1nnc2n(c1=O)CCN2c1ccc(Cl)c(Cl)c1 [Compound 34]
log kw, IAM ([3]; ref [22]): 1.67
mechanism of antiproliferative action: promoting apoptotic caspases (human cancer cells [2]): promoting apoptotic caspases

CCOC(=O)c1nnc2n(c1=O)CCN2c1cccc(Cl)c1 [Compound 37]
log kw, IAM ([3]; ref [22]): 1.73
antitumor activity (human cancer cells [4]): antitumor

CCOC(=O)c1nnc2n(c1=O)CCN2c1ccc(Cl)c(Cl)c1 [Compound 39]
log kw, IAM ([3]; ref [22]): 3.36
antitumor activity (human cancer cells [4]): antitumor

COC(=O)Cc1nnc2n(c1=O)CCN2c1ccc(C)cc1 [Compound 41]
log kw, IAM ([3]; ref [23]): 1.33
analgesic activity [5]: analgesic

COC(=O)Cc1nnc2n(c1=O)CCN2c1ccc(OC)cc1 [Compound 42]
log kw, IAM ([3]; ref [23]): 0.81
analgesic activity [5]: analgesic

CCOC(=O)Cc1nnc2n(c1=O)CCN2c1ccccc1 [Compound 45]
log kw, IAM ([3]; ref [23]): 1.21
mechanism of antiproliferative action: promoting apoptosis (human cancer cells [2]): apoptosis
mechanism of antiproliferative action: promoting necrosis (human cancer cells [2]): necrosis

CCOC(=O)Cc1nnc2n(c1=O)CCN2c1cccc(Cl)c1 [Compound 48]
log kw, IAM ([3]; ref [23]): 2.05
mechanism of antiproliferative action: promoting apoptosis (human cancer cells [2]): apoptosis
mechanism of antiproliferative action: promoting necrosis (human cancer cells [2]): necrosis

CCOC(=O)Cc1nnc2n(c1=O)CCN2c1ccc(Cl)c(Cl)c1 [Compound 50]
log kw, IAM ([3]; ref [23]): 2.42
mechanism of antiproliferative action: promoting apoptosis (human cancer cells [2]): apoptosis
mechanism of antiproliferative action: promoting necrosis (human cancer cells [2]): necrosis

NNC(=O)c1nnc2n(c1=O)CCN2c1ccccc1 [Compound 51]
log kw, IAM ([3]; ref [21]): −0.14
analgesic activity [5]: analgesic

NNC(=O)c1nnc2n(c1=O)CCN2c1cccc(Cl)c1 [Compound 54]
log kw, IAM ([3]; ref [21]): 0.41
antitumor activity (human cancer cells [4]): antitumor
mechanism of antiproliferative action: inducing DNA damage (human cancer cells [2]): DNA damage
mechanism of antiproliferative action: promoting apoptosis (human cancer cells [2]): apoptosis

NNC(=O)c1nnc2n(c1=O)CCN2c1ccc(Cl)c(Cl)c1 [Compound 55]
log kw, IAM ([3]; ref [21]): 0.69
antiradical activity [6]: antiradical

Cc1ccc(N2CCn3c2nnc(CC(=O)NN)c3=O)cc1 [Compound 57]
log kw, IAM [1]: 0.13

CCOc1ccc(N2CCn3c2nnc(CC(=O)NN)c3=O)cc1 [Compound 59]
log kw, IAM [1]: 0.06

NNC(=O)Cc1nnc2n(c1=O)CCN2c1ccc(Cl)cc1 [Compound 60]
log kw, IAM [1]: 0.32

O=c1c(-c2cccs2)nnc2n1CCN2c1ccccc1 [Compound 72]
log kw, IAM [1]: 1.64

Cc1ccccc1N1CCn2c1nnc(-c1cccs1)c2=O [Compound 73]
log kw, IAM [1]: 1.54

Cc1ccc(N2CCn3c2nnc(-c2cccs2)c3=O)cc1 [Compound 74]
log kw, IAM [1]: 1.94

Cc1cccc(N2CCn3c2nnc(-c2cccs2)c3=O)c1C [Compound 75]
log kw, IAM [1]: 1.17

COc1ccccc1N1CCn2c1nnc(-c1cccs1)c2=O [Compound 76]
log kw, IAM [1]: 1.50

O=c1c(-c2cccs2)nnc2n1CCN2c1ccccc1Cl [Compound 77]
log kw, IAM [1]: 1.75

O=c1c(-c2cccs2)nnc2n1CCN2c1cccc(Cl)c1 [Compound 78]
log kw, IAM [1]: 2.26

O=c1c(-c2cccs2)nnc2n1CCN2c1ccc(Cl)cc1 [Compound 79]
log kw, IAM [1]: 1.53

O=c1c(-c2cccs2)nnc2n1CCN2c1ccc(Cl)c(Cl)c1 [Compound 80]
log kw, IAM [1]: 2.68
mechanism of antiproliferative action: promoting apoptosis (human cancer cells [2]): apoptosis
mechanism of antiproliferative action: promoting necrosis (human cancer cells [2]): necrosis

O=c1c(-c2ccccc2)nnc2n1CCN2c1ccc(Cl)cc1 [Compound 91]
log kw, IAM ([3]; ref [23]): 2.57
analgesic activity [5]: analgesic

O=c1c(-c2ccc([N+](=O)[O-])cc2)nnc2n1CCN2c1ccccc1 [Compound 93]
log kw, IAM [1]: 1.92

Cc1ccccc1N1CCn2c1nnc(-c1ccc([N+](=O)[O-])cc1)c2=O [Compound 94]
log kw, IAM [1]: 2.52

Cc1ccc(N2CCn3c2nnc(-c2ccc([N+](=O)[O-])cc2)c3=O)cc1 [Compound 95]
log kw, IAM [1]: 1.83

COc1ccccc1N1CCn2c1nnc(-c1ccc([N+](=O)[O-])cc1)c2=O [Compound 96]
log kw, IAM [1]: 1.78

Cc1cccc(N2CCn3c2nnc(-c2ccc([N+](=O)[O-])cc2)c3=O)c1C [Compound 97]
log kw, IAM [1]: 1.78

O=c1c(-c2ccc([N+](=O)[O-])cc2)nnc2n1CCN2c1ccccc1Cl [Compound 98]
log kw, IAM [1]: 2.16

O=c1c(-c2ccc([N+](=O)[O-])cc2)nnc2n1CCN2c1cccc(Cl)c1 [Compound 99]
log kw, IAM [1]: 2.02

O=c1c(-c2ccc([N+](=O)[O-])cc2)nnc2n1CCN2c1ccc(Cl)cc1 [Compound 100]
log kw, IAM [1]: 2.52

O=c1c(-c2ccc([N+](=O)[O-])cc2)nnc2n1CCN2c1ccc(Cl)c(Cl)c1 [Compound 101]
log kw, IAM [1]: 3.22

O=c1c(Cc2ccccc2Cl)nnc2n1CCN2c1ccccc1 [Compound 103]
log kw, IAM ([3]; ref [23]): 2.34
analgesic activity [7]: analgesic activity
toxicity [7]: low toxicity
analgesic activity [5]: analgesic

Cc1ccc(N2CCn3c2nnc(Cc2ccccc2Cl)c3=O)cc1 [Compound 109]
log kw, IAM ([3]; ref [23]): 2.65
analgesic activity [7]: analgesic activity
toxicity [7]: low toxicity
antitumor activity (human cancer cells [4]): antitumor
analgesic activity [5]: analgesic

CCOc1ccc(N2CCn3c2nnc(Cc2ccccc2)c3=O)cc1 [Compound 112]
log kw, IAM ([3]; ref [23]): 2.11
analgesic activity [5]: analgesic

CCOc1ccc(N2CCn3c2nnc(Cc2ccccc2Cl)c3=O)cc1 [Compound 114]
log kw, IAM ([3]; ref [23]): 2.51
analgesic activity [7]: analgesic activity
toxicity [7]: low toxicity
antitumor activity (human cancer cells [4]): antitumor
analgesic activity [5]: analgesic

CCOc1ccc(N2CCn3c2nnc(Cc2ccc(Cl)cc2)c3=O)cc1 [Compound 116]
log kw, IAM ([3]; ref [23]): 2.72
analgesic activity [7]: analgesic activity
toxicity [7]: low toxicity
antitumor activity (human cancer cells [4]): antitumor
